Key:
[1] = molecular target: human Adenosine A3 receptor (Homo sapiens (Human), UniProt P0DMS8); test: Adenosine receptor TR-FRET binding assay (A3); settings: CHO cell membranes, 100 nM CA200645, Ki from IC50 by Cheng and Prusoff
Experimental: (§1) All FRET binding experiments were conducted at room temperature in white 384-well plates, in assay binding buffer containing 1× LabMed (Cisbio, France), 100 μg/mL saponin, 1% DMSO and 0.02% pluronic acid. Binding of the fluorescently labelled Adenosine receptor antagonist XAC (CA200645, FRET acceptor) to terbium-labelled A1, A2a, A2b and A3 adenosine receptors (FRET donors) was detected by time-resolved FRET due to the close proximity of the donor and acceptor in a binding event. To investigate the ability of unlabelled test compounds to bind to Adenosine A1, A2a, A2b and A3 receptors, dose response curves were constructed that determined the ability of a range of concentrations to inhibit the binding of 30 nM CA200645 to the A2b receptor and 100 nM CA200645 to the A1, A2a, and A3 receptor.
(§2) Serial dilution (1:3 dilutions) of test compounds in neat DMSO and transfer of a 400 nL sample of test compound into the assay plate was carried out using the Mosquito (TTP Labtech, UK). The compound samples were incubated for 2 hours at room temperature with a fixed concentration of CA200645 defined for each receptor (see above) and CHO cell membranes containing the human Adenosine A1 (0.5 μg/well), A2a (0.3 μg/well), A2b (1 μg/well) or A3 (1 μg/well) receptor in 40 μL of assay buffer. Total and non-specific binding of CA200645 was determined in the absence and presence of 10 μM XAC, respectively. Following 2 hours incubation, the level of CA200645 binding was detected on a Pherastar FSX (BMG Labtech, Germany) using standard TR-FRET settings. The terbium donor was excited with three laser flashes at a wavelength of 337 nm, and donor and acceptor emission was detected at 620 nm and 665 nm wavelengths, respectively. FRET ratios were obtained by multiplying the acceptor/donor ratio value by 10,000. Specific binding was determined by subtracting the non-specific binding FRET ratio from the total binding FRET ratio. Compound IC50 curves were analysed using GraphPad Prism 7.0 (GraphPad, USA) and Ki affinity values were determined from the obtained IC50 values using the method of Cheng and Prusoff.

[2] = molecular target: human Adenosine A1 receptor (Homo sapiens (Human), UniProt P30542); test: Adenosine receptor TR-FRET binding assay (A1); settings: CHO cell membranes, 100 nM CA200645, Ki from IC50 by Cheng and Prusoff
Experimental: as §1, §2

[3] = molecular target: human Adenosine A2b receptor (Homo sapiens (Human), UniProt P29275); test: Adenosine receptor TR-FRET binding assay (A2b); settings: CHO cell membranes, 30 nM CA200645, Ki from IC50 by Cheng and Prusoff
Experimental: as §1, §2

[4] = molecular target: human Adenosine A2a receptor (Homo sapiens (Human), UniProt P29274); test: Adenosine receptor TR-FRET binding assay (A2a); settings: CHO cell membranes, 100 nM CA200645, Ki from IC50 by Cheng and Prusoff
Experimental: as §1, §2

human PBMCs = test: CD3/CD28 stimulated IL-2 release NECA reversal assay in human PBMCs; assay type: cell-based; settings: PBMC, 1 uM NECA, 24 hours
Experimental: Blood is drawn from healthy volunteers using sodium citrate as the anticoagulant (0.3% final concentration). After centrifugation of the blood over Histopaque-1077, PBMCs are collected from the Histopaque/plasma interface and washed twice in PBS (300 g for 10 mins at room temp). Cells are plated at 50,000 cells/well in 150 μl RPMI/10% FCS in 96-well cell culture plates that have been precoated with 1 ug/ml CD3 antibody. 50 μl diluted compound mix is added to the cells, to obtain final concentrations of 1 μg/ml CD28 antibody, 1 uM NECA and 0.003-10 μM adenosine receptor antagonist. Assay plates are incubated for 24 hours at 37° C. in a humidified incubator. Culture supernatant is tested for IL-2 levels using the human IL-2 Tissue Culture Kit (Meso Scale Discovery). Data for dose-response curves is calculated as % inhibition with 100% inhibition defined from no agonist control wells (+CD3/28-NECA)

[5] = tested on: pCREB in CD8+ T cells in human whole blood; test: Measurement of pCREB in CD8+ T cells in human whole blood; assay type: cell-based; settings: T-cell, 3 μM NECA, rolipram, FACS
Experimental: Heparinised human whole blood was pre-incubated at 37° C. with serial dilutions of A2a antagonists for 20 min. and the phosphodiesterase inhibitor rolipram to amplify the pCREB response. The adenosine receptor agonist NECA is then added at a final concentration of 3 μM and following a 60 min incubation the blood is fixed and red blood cells lysed. White blood cells are isolated, permeabilized and stained with directly conjugated fluorescent antibodies to phospho-CREB (Alexa Fluor 488) and CD8 (Alexa Fluor 647) and the level of phospho-CREB in CD8+ T cells is measured by FACS using a BD Accuri C6 Flow Cytometer.

Chain of human Adenosine A2b receptor (P29275 whole entry): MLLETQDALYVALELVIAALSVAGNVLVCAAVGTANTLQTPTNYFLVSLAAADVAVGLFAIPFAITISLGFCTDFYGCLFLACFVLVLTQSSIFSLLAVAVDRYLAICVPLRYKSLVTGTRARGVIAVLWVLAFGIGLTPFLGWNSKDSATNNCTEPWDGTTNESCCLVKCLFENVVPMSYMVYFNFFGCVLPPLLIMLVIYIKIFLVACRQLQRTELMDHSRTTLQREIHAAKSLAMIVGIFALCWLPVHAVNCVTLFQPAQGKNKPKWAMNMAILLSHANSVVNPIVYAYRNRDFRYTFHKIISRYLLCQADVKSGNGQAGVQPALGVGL
Chain of human Adenosine A3 receptor (P0DMS8 whole entry): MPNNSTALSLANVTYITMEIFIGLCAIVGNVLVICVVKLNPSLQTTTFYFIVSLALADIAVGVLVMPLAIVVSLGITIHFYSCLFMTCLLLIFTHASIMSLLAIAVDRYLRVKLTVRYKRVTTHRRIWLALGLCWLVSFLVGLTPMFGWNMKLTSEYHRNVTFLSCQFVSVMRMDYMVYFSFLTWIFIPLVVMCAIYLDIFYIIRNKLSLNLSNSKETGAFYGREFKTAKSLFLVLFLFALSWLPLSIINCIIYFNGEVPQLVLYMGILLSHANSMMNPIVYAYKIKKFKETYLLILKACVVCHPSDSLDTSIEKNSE
Chain of human Adenosine A1 receptor (P30542 whole entry): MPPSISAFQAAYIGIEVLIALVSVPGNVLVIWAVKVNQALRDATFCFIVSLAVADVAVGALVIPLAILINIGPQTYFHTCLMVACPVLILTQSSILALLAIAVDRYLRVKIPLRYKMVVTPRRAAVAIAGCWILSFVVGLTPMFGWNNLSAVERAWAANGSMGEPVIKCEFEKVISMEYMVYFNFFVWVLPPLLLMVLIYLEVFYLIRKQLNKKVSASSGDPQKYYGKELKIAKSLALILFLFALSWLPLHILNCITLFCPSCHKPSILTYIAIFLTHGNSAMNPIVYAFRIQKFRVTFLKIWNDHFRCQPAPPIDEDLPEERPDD
Chain of human Adenosine A2a receptor (P29274 whole entry): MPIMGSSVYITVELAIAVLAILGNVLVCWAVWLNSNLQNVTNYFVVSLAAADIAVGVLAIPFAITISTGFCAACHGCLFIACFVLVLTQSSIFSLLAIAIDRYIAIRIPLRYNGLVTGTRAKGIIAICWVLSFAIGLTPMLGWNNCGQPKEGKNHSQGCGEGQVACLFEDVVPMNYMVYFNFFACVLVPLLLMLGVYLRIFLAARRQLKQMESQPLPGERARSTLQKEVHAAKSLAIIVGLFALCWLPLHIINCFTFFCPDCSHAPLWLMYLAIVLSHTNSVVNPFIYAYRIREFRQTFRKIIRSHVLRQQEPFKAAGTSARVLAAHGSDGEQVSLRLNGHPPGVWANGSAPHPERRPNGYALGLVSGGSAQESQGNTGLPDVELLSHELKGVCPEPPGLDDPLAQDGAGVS

Row | SMILES | Ki [1] [µM] | Ki [2] [µM] | Ki [3] [µM] | Ki [4] [µM] | IC50 [5] [µM] | IC50 (human PBMCs) [µM]
1 | Cc1cc(-c2c(-c3cccc(C#N)c3)nc3ccc(C(=O)NCC(C)(C)O)nn23)cc(C)n1 [Example 2.1, 2-(3-Cyanophenyl)-3-(2,6-dimethyl-4-pyridyl)-N-(2-hydroxy-2-methyl-propyl)imidazo[1,2-b]pyridazine-6-carboxamide] | > 1 | 0.667 | 0.212 | 0.00079 | 0.122 | 0.0138
2 | Cc1cc(-c2c(-c3cccc(C#N)c3)nc3ccc(C(=O)NCC(C)(C)O)nn23)cc(C(F)(F)F)n1 [Example 2.3, 2-(3-Cyanophenyl)-N-(2-hydroxy-2-methyl-propyl)-3-[2-methyl-6-(trifluoromethyl)-4-pyridyl]imidazo[1,2-b]pyridazine-6-carboxamide] | > 1 | 0.095 | 0.018 | 0.00046 | 0.282 | 0.0073
3 | Cc1cc(-c2c(-c3cccc(C#N)c3)nc3ccc(C(=O)N[C@@H](C)C(C)(C)O)nn23)cc(C(F)(F)F)n1 [Example 2.6, 2-(3-Cyanophenyl)-N-[(1S)-2-hydroxy-1,2-dimethyl-propyl]-3-[2-methyl-6-(trifluoromethyl)-4-pyridyl]imidazo[1,2-b]pyridazine-6-carboxamide] | > 1 | 0.03 | 0.018 | 0.00017 | 0.058 | 0.0006
4 | Cc1cc(-c2c(-c3cccc(C#N)c3)nc3ccc(C(=O)N[C@H](C)C(C)(C)O)nn23)cc(C(F)(F)F)n1 [Example 2.7, 2-(3-Cyanophenyl)-N-[(1R)-2-hydroxy-1,2-dimethyl-propyl]-3-[2-methyl-6-(trifluoromethyl)-4-pyridyl]imidazo[1,2-b]pyridazine-6-carboxamide] | > 1 | 0.324 | 0.079 | 0.00034 | 0.499 | 0.0105
5 | Cc1cc(-c2c(-c3cccc(C#N)c3)nc3ccc(C(=O)N[C@@H](C)C(C)(C)O)nn23)cc(Cl)n1 [Example 2.9, 3-(2-Chloro-6-methyl-4-pyridyl)-2-(3-cyanophenyl)-N-[(1S)-2-hydroxy-1,2-dimethyl-propyl]imidazo[1,2-b]pyridazine-6-carboxamide] | > 1 | 0.096 | 0.02 | 0.0002 | 0.168 | 0.0053
6 | Cc1cc(-c2c(-c3cccc(C#N)c3)nc3ccc(C(=O)N[C@@H](C)C(C)(C)O)nn23)cc(C)n1 [Example 3, 2-(3-Cyanophenyl)-3-(2,6-dimethyl-4-pyridyl)-N-[(1S)-2-hydroxy-1,2-dimethyl-propyl]imidazo[1,2-b]pyridazine-6-carboxamide] | > 1 | 0.071 | 0.031 | 0.00016 | 0.061 | 0.0017

More lines, main results first:

Row | Ki [1] [µM] | Ki [2] [µM] | Ki [3] [µM] | Ki [4] [µM] | IC50 [5] [µM] | SMILES | IC50 (human PBMCs) [µM]
7 | > 1 | 4 | 0.5 | 0.0109 | – | CC(C)(O)CNC(=O)c1ccc2nc(-c3cccc(C#N)c3)c(Br)n2n1 [Example 1, 3-Bromo-2-(3-cyanophenyl)-N-(2-hydroxy-2-methyl-propyl)imidazo[1,2-b]pyridazine-6-carboxamide] | –
8 | > 1 | 1.83 | 1.58 | 0.0039 | – | CC(=O)c1cc(-c2c(-c3cccc(C#N)c3)nc3ccc(C(=O)NCC(C)(C)O)nn23)cc(C)n1 [Example 2, 3-(2-Acetyl-6-methyl-4-pyridyl)-2-(3-cyanophenyl)-N-(2-hydroxy-2-methyl-propyl)imidazo[1,2-b]pyridazine-6-carboxamide] | –
9 | > 1 | 0.363 | 0.027 | 0.0005 | 0.496 | Cc1cc(-c2c(-c3cccc(C#N)c3)nc3ccc(C(=O)NCC(C)(C)O)nn23)cc(Cl)n1 [Example 2.2, 3-(2-Chloro-6-methyl-4-pyridyl)-2-(3-cyanophenyl)-N-(2-hydroxy-2-methyl-propyl)imidazo[1,2-b]pyridazine-6-carboxamide] | 0.039
10 | > 1 | 0.286 | 0.156 | 0.0023 | 2.04 | COc1cc(-c2c(-c3cccc(C#N)c3)nc3ccc(C(=O)NCC(C)(C)O)nn23)cc(C)n1 [Example 2.4, 2-(3-Cyanophenyl)-N-(2-hydroxy-2-methyl-propyl)-3-(2-methoxy-6-methyl-4-pyridyl)imidazo[1,2-b]pyridazine-6-carboxamide] | 0.0135
11 | > 1 | 0.078 | 0.034 | 0.00032 | 0.105 | Cc1cc(-c2c(-c3cccc(C#N)c3)nc3ccc(C(=O)N[C@@H](C)C(C)(C)O)nn23)cc(C(F)F)n1 [Example 2.5, 2-(3-Cyanophenyl)-3-[2-(difluoromethyl)-6-methyl-4-pyridyl]-N-[(1S)-2-hydroxy-1,2-dimethyl-propyl]imidazo[1,2-b]pyridazine-6-carboxamide] | 0.0011
12 | > 1 | 0.243 | 0.285 | 0.00019 | 0.472 | COc1cc(-c2c(-c3cccc(C#N)c3)nc3ccc(C(=O)N[C@@H](C)C(C)(C)O)nn23)cc(C)n1 [Example 2.8, 2-(3-Cyanophenyl)-N-[(1S)-2-hydroxy-1,2-dimethyl-propyl]-3-(2-methoxy-6-methyl-4-pyridyl)imidazo[1,2-b]pyridazine-6-carboxamide] | 0.0046
13 | > 1 | 0.12 | 0.049 | 0.00068 | – | Cc1cc(-c2c(-c3cccc(C#N)c3)nc3ccc(C(=O)N[C@@H](C)C(C)(C)O)nn23)cc(CO)n1 [Example 6, 2-(3-Cyanophenyl)-N-[(1S)-2-hydroxy-1,2-dimethyl-propyl]-3-[2-(hydroxymethyl)-6-methyl-4-pyridyl]imidazo[1,2-b]pyridazine-6-carboxamide] | –
